Reference: ChEMBL document CHEMBL1201862, “PubChem BioAssay data set” (2004)
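Where inhibition never reached the appropriate level, the endpoint shown equals the highest concentration tested. Otherwise, values were interpolated linearly from a five-concentration, 48-hour dose response in 96-well plates. GI50 = concentration required for 50% inhibition of growth.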 Activity calls are given as the source filed them. Rule as the data show it: active = GI50 up to about 1.1 µM and inactive = higher.

Key:
Assay in all cases: inhibition of tumour cell growth, NCI panel, 48 h
UACC-257 = test system: UACC-257
U-251 = test system: U-251
SF-295 = test system: SF-295
SK-MEL-28 = test system: SK-MEL-28
SW-620 = test system: SW-620
UO-31 = test system: UO-31
HOP-62 = test system: HOP-62
KM12 = test system: KM12
COLO 205 = test system: COLO 205
SF-268 = test system: SF-268
TK-10 = test system: TK-10
SR = test system: SR
HT-29 = test system: HT-29
NCI-H460 = test system: NCI-H460
SK-MEL-2 = test system: SK-MEL-2
MDA-MB-435 = test system: MDA-MB-435
CCRF-CEM = test system: CCRF-CEM
NCI-H23 = test system: NCI-H23
MDA-N = test system: MDA-N
BT-549 = test system: BT-549

Measured: GI50

O=C(/C=C(\C(=O)c1cccs1)c1cccs1)c1ccc(C(=O)/C=C(\C(=O)c2cccs2)c2cccs2)cc1
inactive: UACC-257 > 100 µM | U-251 > 100 µM | SF-295 > 100 µM | SK-MEL-28 > 100 µM | SW-620 > 100 µM | UO-31 > 100 µM | HOP-62 > 100 µM | KM12 > 100 µM | COLO 205 > 100 µM | SF-268 > 100 µM | TK-10 > 100 µM | SR > 100 µM | HT-29 > 100 µM | NCI-H460 > 100 µM | SK-MEL-2 > 100 µM | MDA-MB-435 > 100 µM | CCRF-CEM > 100 µM

NNC(=O)C(=O)N/N=C1/CCCC1C(=O)CCC(=O)Nc1ccc(Cl)cc1 (stereo not given)
inactive: UACC-257 > 100 µM | U-251 > 100 µM | SF-295 > 100 µM | SK-MEL-28 > 100 µM | SW-620 > 100 µM | UO-31 > 100 µM | HOP-62 > 100 µM | KM12 > 100 µM | COLO 205 > 100 µM | SF-268 > 100 µM | TK-10 > 100 µM | NCI-H23 > 100 µM | SR > 100 µM | HT-29 > 100 µM | NCI-H460 > 100 µM | SK-MEL-2 24.4 µM | CCRF-CEM > 100 µM

CCOc1ccccc1Nc1nc(C)c(C(=O)CC(=O)C(=O)Nc2ccccc2)s1
inactive: UACC-257 50.9 µM | U-251 36.6 µM | SF-295 54.1 µM | SK-MEL-28 > 100 µM | SW-620 72.4 µM | UO-31 32.2 µM | HOP-62 > 100 µM | KM12 45.6 µM | COLO 205 49.3 µM | SF-268 > 100 µM | TK-10 73.8 µM | NCI-H23 36.2 µM | SR 49.7 µM | HT-29 37.1 µM | NCI-H460 49.7 µM | SK-MEL-2 37.3 µM | CCRF-CEM 39.1 µM

CNC(=O)CCNC(=O)CCC(=O)OC
inactive: U-251 > 100 µM | SF-295 > 100 µM | SK-MEL-28 > 100 µM | SW-620 > 100 µM | UO-31 > 100 µM | HOP-62 > 100 µM | KM12 > 100 µM | COLO 205 > 100 µM | SF-268 > 100 µM | MDA-N > 100 µM | TK-10 > 100 µM | NCI-H23 > 100 µM | HT-29 > 100 µM | NCI-H460 > 100 µM | SK-MEL-2 > 100 µM | MDA-MB-435 > 100 µM

COC(=O)[C@H]1ON2O[C@@H](O[C@H]3CCCC[C@@H]3C(C)(C)c3ccccc3)C[C@@H]3CC[C@H]1[C@@]32C
inactive: UACC-257 > 100 µM | U-251 > 100 µM | SF-295 > 100 µM | SW-620 > 100 µM | UO-31 > 100 µM | HOP-62 > 100 µM | KM12 > 100 µM | COLO 205 > 100 µM | SF-268 > 100 µM | MDA-N > 100 µM | TK-10 > 100 µM | NCI-H23 > 100 µM | SR > 100 µM | HT-29 > 100 µM | NCI-H460 > 100 µM | MDA-MB-435 > 100 µM | CCRF-CEM > 100 µM

CCC[C@H](C)C[C@H](C)C[C@H](C)/C=C(\C)[C@@H](O)[C@@H](C)C(=O)CC
inactive: UACC-257 20.1 µM | BT-549 23.4 µM | U-251 22.4 µM | SF-295 22.9 µM | SK-MEL-28 18.7 µM | SW-620 20.3 µM | UO-31 23 µM | HOP-62 20.4 µM | KM12 20.2 µM | SF-268 20.9 µM | TK-10 23.2 µM | NCI-H23 18.9 µM | HT-29 19.5 µM | NCI-H460 24 µM | SK-MEL-2 24.9 µM | MDA-MB-435 20.6 µM | CCRF-CEM 24.3 µM

CN(C)C(n1cc2c(c1)-c1ccc(Cl)cc1C(c1ccccc1F)=NC2)n1cc2c(c1)-c1ccc(Cl)cc1C(c1ccccc1F)=NC2
inactive: UACC-257 > 100 µM | U-251 > 100 µM | SF-295 26.3 µM | SK-MEL-28 21.5 µM | SW-620 > 100 µM | UO-31 97.3 µM | HOP-62 > 100 µM | COLO 205 > 100 µM | SF-268 36 µM | MDA-N 18.4 µM | NCI-H23 3.31 µM | SR > 100 µM | HT-29 14.3 µM | NCI-H460 51.3 µM | SK-MEL-2 > 100 µM | MDA-MB-435 > 100 µM | CCRF-CEM > 100 µM

Cc1ccc(NC(=O)/C(Cl)=C(/Cl)C(=O)O)cc1
inactive: UACC-257 22 µM | U-251 17.1 µM | SF-295 30.2 µM | SK-MEL-28 18.9 µM | SW-620 15.1 µM | UO-31 17.8 µM | HOP-62 71.4 µM | KM12 18.7 µM | COLO 205 6.93 µM | SF-268 23 µM | TK-10 18.7 µM | NCI-H23 17.5 µM | SR 18.2 µM | HT-29 18.3 µM | NCI-H460 > 100 µM | SK-MEL-2 14.6 µM | CCRF-CEM 2.12 µM
